The source of these data is US20240287029A1, “SULFONAMIDES, METHOD FOR PREPARATION THEREOF, AND USE THEREOF” (CHENGDU SHIBEIKANG BIOMEDICAL TECHNOLOGY CO., LTD., priority 2021, published 2024).

Marks after values point to notes of the source that are not given here.

Data set [1] has as its system ammonia-induced coughs in mice. Nature of the data set: Mouse coughing test (concentrated ammonia induced cough). It counts as in vivo. The settings on record: KM mice, 30 mg/kg intragastric; for duration of cough-relieving action compared to Comparative Compound 1: 60 and 120 min; for Number of coughs: 30 min after administration; for Number of coughs / Number of coughs 60 min / Number of coughs 120 min: coughs within 3 min, group mean; for Number of coughs 60 min: 60 min after administration; for Number of coughs 120 min: 120 min after administration. The source says: Healthy adult KM mice, half male and half female, 6 mice in each group, each weighing about 28-30 g.
Most of the animal coughing models reported in the literature use mechanical, chemical and electrical stimulation to stimulate the animal's nerves and receptors to trigger coughing. Based on the characteristics of the candidate compounds and the existing similar target compounds as a reference, the concentrated ammonia induction method was preliminarily selected to establish a coughing model in mice.
Preparation of 50% aqueous ammonia solution: 2.5 ml aqueous ammonia was dissolved in a 5 ml injection solution of 0.9% sodium chloride, and mixed well.
Preparation of solutions of the positive control and Comparative Compound 1: each of 9 mg positive control and 9 mg Comparative Compound 1 was weighed and dissolved in a 3 ml solution of 0.5% CMC-Na, and fully mixed, to obtain a 3 mg/ml solution.
Preparation of solutions of the compounds of Examples: 9 mg of the compound of each Example was dissolved in a 3 ml solution of 0.5% CMC-Na, and mixed thoroughly, to obtain a 3 mg/ml solution.
Grouping: Comparative Example 1 group, Positive control group, Example group, Model group. Six KM mice in each group were intragastrically given Comparative Compound 1 (30 mg/kg), the positive control (Gefapixant, purchased, 30 mg/kg), and an Example compound (30 mg/kg), and the model group was given an equal volume of 0.5% CMC-Na solution. 30 min, 60 min, or 120 min after administration, each mouse was placed in a 500 ml beaker, and a cotton ball (weight: 100±5 mg) containing 0.3 ml 50% aqueous ammonia was placed in the beaker. The number of typical coughs by the mouse within 3 min was observed (typical cough: contraction of the abdominal muscle or contraction of the chest, accompanied by wide opening of the mouth and a coughing sound).
• (1) Cough judgment criteria: Cough was judged by contraction of the abdominal muscle or contraction of the chest, accompanied by wide opening of the mouth and a coughing sound. • (2) The number of coughs by the mice within 3 min was recorded with a stop watch, and statistically analyzed with software. The data of each group were statistically expressed in mean±standard deviation, and one-way ANOVA between multiple groups was performed, P<0.05 for statistically significant difference.

The subject of another data set is sense of taste of rats. Put plainly: Taste disorder test (quinine water / tap water two-bottle drinking). It is filed as in vivo, SD rats. The conditions noted are these: 10 mg/kg intravenous; for effect on the sense of taste: quinine water/tap water ratio vs solvent group, in words; for Quinine water/tap water (%): SD rats, drinking 0 to 15 min after administration, 0.3 mM quinine. The protocol: Preparation of 0.3 mM quinine solution: 119.20 mg quinine hydrochloride was weighed and dissolved in 1,000 ml tap water, and mixed well.
Preparation of test sample solution: 40 mg of the test sample was weighed and added to an appropriate amount of DMSO and dissolved, then a solution of solubilizer HS-15 was added thereto and mixed well, and 16 ml saline was added, to obtain a solution of 2.5 mg/ml.
Animals and grouping: male SD rats each about 160 to 180 g, 10 rats per group, with similar average weight in each group, fed in separate cages.
Drinking habit training: the animals in each group were given normal drinking water for 30 minutes at 8:30 am and 4:30 pm every day, with water deprivation for the rest of the day, and trained for 5 days, wherein two bottles of water placed in the left and right positions respectively were renewed every day.
Administration: After water deprivation over the night before the experiment, on the next morning 4 mL/kg (10 mg/kg) of the test sample was injected intravenously in the tail vein of the rats in the test group, and 4 mL/kg (10 mg/kg) of 0.5% HS-15 was injected intravenously in the model group.
• (1) Drinking water measurement: after injection, the animals were put back to their original cages, and the measurement time of each group was in the window covering the Tmax of the drugs (the measurement time was from 0 min to 15 min after administration); in each cage a bottle of normal drinking water and a bottle of drinking water containing 0.3 mM quinine hydrochloride (Quinie) were placed, and the left and right positions of the two bottles in all cages were the same. The animals were allowed to drink freely for 15 min, and the volume of water consumed from the two bottles was measured separately, accurate to 0.1 ml. • (2) Statistical analysis of data: the volume of the consumed quinine bitter water and the volume of the consumed tap water were measured, the percentage of quinine water relative to tap water was calculated, and ANOVA was used to check whether there was a significant difference between the groups.

The target of a further data set is T1, human P2X3 receptor (Homo sapiens, UniProt P56373).
T1 sequence (P56373 1-397): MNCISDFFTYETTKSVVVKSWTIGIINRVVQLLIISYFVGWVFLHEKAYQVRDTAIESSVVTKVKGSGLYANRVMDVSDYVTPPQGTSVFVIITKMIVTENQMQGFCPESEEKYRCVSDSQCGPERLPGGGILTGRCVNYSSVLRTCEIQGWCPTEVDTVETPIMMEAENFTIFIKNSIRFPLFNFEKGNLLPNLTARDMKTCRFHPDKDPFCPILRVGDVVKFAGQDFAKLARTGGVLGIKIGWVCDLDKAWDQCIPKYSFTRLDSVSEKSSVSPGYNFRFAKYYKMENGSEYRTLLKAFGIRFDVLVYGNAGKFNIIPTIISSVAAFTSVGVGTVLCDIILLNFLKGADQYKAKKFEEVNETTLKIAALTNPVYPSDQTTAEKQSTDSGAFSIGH
Put plainly: In vitro biological activity evaluation, P2X3 antagonist mode FLIPR assay with BZATP agonist.

Data set [2] has as its system refractory or unexplained chronic cough in adult patients. The settings on record: cited from earlier work.

Excerpt for human P2X3 receptor: A HEK293 cell line stably transfected with human P2X3 receptor was used.

Consider `CC(C)(Cn1c(=O)nc(Nc2ccc(Oc3ccccn3)cc2)n(Cc2ccc(Cl)cc2)c1=O)C(=O)NS(C)(=O)=O` [Example 11], for which the “duration of cough-relieving action compared to Comparative Compound 1” value (from here on “duration … compared to Comparative Compound 1”) in data set [1] (in words) is reported as “significantly prolonged”. Besides, in data set [1], the Number of coughs is 17.62**, the “Number of coughs 60 min” value was 16.68** and the “Number of coughs 120 min” value was 18.90**^Δ. Also, in the data set with sense of taste of rats, the “effect on the sense of taste” value is listed as “almost no effect” and the “Quinine water/tap water (%)” value is 37.12%^Δ. Also, the IC50 on human P2X3 receptor is under 10 nM.

For `CC(C)NS(=O)(=O)NC(=O)[C@@H](C)Cn1c(=O)nc(Nc2ccc(Oc3ccccn3)cc2)n(Cc2ccc(Cl)cc2)c1=O` [Example 6], in data set [1] (in words), the “duration … compared to Comparative Compound 1” value is listed as “significantly prolonged”. For the same molecule, in data set [1], the Number of coughs is recorded as 20.60**, the “Number of coughs 60 min” value was 17.63** and the “Number of coughs 120 min” value is given as 28.78*^Δ. In addition, in the data set with sense of taste of rats, the “effect on the sense of taste” value is given as “almost no effect” and the “Quinine water/tap water (%)” value was 41.54%^Δ. On human P2X3 receptor, this molecule yielded an IC50 of under 10 nM.

Turning to `Cc1ccc(S(=O)(=O)NC(=O)[C@@H](C)Cn2c(=O)nc(Nc3ccc(Oc4ccccn4)cc3)n(Cc3ccc(Cl)cc3)c2=O)cc1` [Example 9], the Number of coughs in data set [1] is on record as 25.11*. The same molecule showed a 50% inhibitory concentration (IC50) at human P2X3 receptor of 10.1 to 100 nM.

With `C[C@@H](Cn1c(=O)nc(Nc2ccc(Oc3ccccn3)cc2)n(Cc2ccc(Cl)cc2)c1=O)C(=O)NS(=O)(=O)C(F)(F)F` [Example 4], the Number of coughs in data set [1] is listed as 28.61*. The same molecule gave an IC50 at human P2X3 receptor of 10.1 to 100 nM.

For the molecule `CNS(=O)(=O)NC(=O)[C@@H](C)Cn1c(=O)nc(Nc2ccc(Oc3ccc(Cl)cn3)cc2)n(Cc2ccc(Cl)cc2)c1=O` [Example 10], in data set [1] (in words), the “duration … compared to Comparative Compound 1” value was “significantly prolonged”. In data set [1], the Number of coughs was 20.27**, the “Number of coughs 60 min” value was 20.33** and the “Number of coughs 120 min” value is 24.13**^Δ. Further, on human P2X3 receptor, the IC50 was under 10 nM.

As to `C[C@@H](Cn1c(=O)nc(Nc2ccc(Oc3ccccn3)cc2)n(Cc2ccc(Cl)cc2)c1=O)C(=O)NS(C)(=O)=O` [Example 1], the “duration … compared to Comparative Compound 1” value in data set [1] (in words) is on record as “significantly prolonged”. In data set [1], the Number of coughs is 13.33**, the “Number of coughs 60 min” value is 18.37** and the “Number of coughs 120 min” value was 17.28**^Δ. In the data set on sense of taste of rats, the “effect on the sense of taste” value is reported as “almost no effect” and the “Quinine water/tap water (%)” value came to 37.01%^Δ. The molecule further showed an IC50 at human P2X3 receptor of under 10 nM.

Turning to `C[C@@H](Cn1c(=O)nc(Nc2ccc(Oc3ccc(OC(F)F)cn3)cc2)n(Cc2ccc(Cl)cc2)c1=O)C(=O)NS(=O)(=O)c1ccc(F)cc1` [Example 8, (S)-3-(3-(4-chlorobenzyl)-4-(4-(5-(5-(difluoromethoxy)pyridin-2-yl)oxyphenyl)amino)-2,6-dioxo-3,6-dihydro-1,3,5-triazin-1(2H)-yl)-N-(4-(4-fluorophenyl)sulfonyl)-2-methylpropionamide], the Number of coughs in data set [1] is on record as 29.83*. At human P2X3 receptor, the half-maximal inhibitory concentration (IC50) lay within 10.1 to 100 nM.

Regarding `COc1cc(C(C)C)c(Oc2cnc(N)nc2N)cc1S(N)(=O)=O` [Positive control, Gefapixant], the Number of coughs in data set [1] is 20.51**. In the data set on sense of taste of rats, the “Quinine water/tap water (%)” value amounted to 79.01%**. Further, in data set [2] (15 mg twice daily), the primary endpoint result is “did not meet the primary endpoint”. The 24-hour cough frequency result in data set [2] (45 mg twice daily, Week 12 (COUGH-1) and Week 24 (COUGH-2), compared with placebo) is “statistically significant reduction”. In data set [2] (45-mg group), the “discontinuation due to adverse events” value is recorded as “higher frequency” and the taste-related adverse events entry is listed as “higher incidence”.

With `C[C@@H](Cn1c(=O)nc(Nc2ccc(Oc3ccccn3)cc2)n(Cc2ccc(Cl)cc2)c1=O)C(=O)NS(=O)(=O)N(C)C` [Example 3], in data set [1] (in words), the “duration … compared to Comparative Compound 1” value is “significantly prolonged”. Also, in data set [1], the Number of coughs was 15.34**, the “Number of coughs 60 min” value was 16.98** and the “Number of coughs 120 min” value is given as 18.56**^Δ. Besides, in the data set on sense of taste of rats, the “effect on the sense of taste” value is on record as “almost no effect” and the “Quinine water/tap water (%)” value is on record as 38.11%^Δ. The concentration for half-maximal inhibition (IC50) on human P2X3 receptor was under 10 nM.

Regarding `CS(=O)(=O)NC(=O)C1(Cn2c(=O)nc(Nc3ccc(Oc4ccccn4)cc3)n(Cc3ccc(Cl)cc3)c2=O)CC1` [Example 12], in data set [1] (in words), the “duration … compared to Comparative Compound 1” value is “significantly prolonged”. In addition, in data set [1], the Number of coughs is given as 19.39**, the “Number of coughs 60 min” value is recorded as 20.17** and the “Number of coughs 120 min” value is on record as 24.14**^Δ. Besides, in the data set on sense of taste of rats, the “effect on the sense of taste” value was “almost no effect” and the “Quinine water/tap water (%)” value came to 39.39%^Δ. On human P2X3 receptor, this molecule gave an IC50 of under 10 nM.

As for `C[C@@H](Cn1c(=O)nc(Nc2ccc(Oc3ccccn3)cc2)n(Cc2ccc(Cl)cc2)c1=O)C(=O)NS(=O)(=O)c1ccccc1` [Example 7], the Number of coughs in data set [1] was 28.66*. At human P2X3 receptor, this molecule came in with an IC50 of 10.1 to 100 nM.

For `C[C@@H](Cn1c(=O)nc(Nc2ccc(Oc3ccccn3)cc2)n(Cc2ccc(Cl)cc2)c1=O)C(=O)NS(=O)(=O)N1CCCC1` [Example 5], in data set [1] (in words), the “duration … compared to Comparative Compound 1” value was “significantly prolonged”. Besides, in data set [1], the Number of coughs was 12.85**, the “Number of coughs 60 min” value was 16.25** and the “Number of coughs 120 min” value is listed as 23.11**^Δ. On human P2X3 receptor, this molecule displayed an IC50 of under 10 nM.

As to `CCS(=O)(=O)NC(=O)[C@@H](C)Cn1c(=O)nc(Nc2ccc(Oc3ccccn3)cc2)n(Cc2ccc(Cl)cc2)c1=O` [Example 2], the Number of coughs in data set [1] is on record as 17.12**. The molecule also showed an IC50 on human P2X3 receptor of under 10 nM.

As for `C[C@@H](Cn1c(=O)nc(Nc2ccc(Oc3ccccn3)cc2)n(Cc2ccc(Cl)cc2)c1=O)C(=O)O` [Comparative Example 1, reference compound], in data set [1], the Number of coughs is recorded as 15.61**, the “Number of coughs 60 min” value is recorded as 22.29** and the “Number of coughs 120 min” value turned out to be 45.21. Moreover, in data set [1] (vs model group, in words), the “cough relieving effect 120 min after administration” value was “did not have an obvious cough relieving effect”. The molecule further had an IC50 at human P2X3 receptor of under 10 nM.

Usually IC50 stands for the point on the concentration scale where inhibition reaches its midpoint. Read a high IC50 as lower potency.
